Results published in patent publication US6737383B1, “Herbicidal oxadiazolidines” (priority 1999, dated 2004).

Assays:
bamyardgrass = experiment: Test B flood test barnyardgrass; type: in vivo, Echinochloa crus-galli
How it was run: (§1)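 Plants were grown to the 2-leaf stage before treatment with test chemical, then held in a greenhouse for twelve to sixteen days. Injury was visually rated against untreated controls on a 0–10 scale, where 0 is no effect and 10 is complete control.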

rice = experiment: Test B flood test rice; type: in vivo, Oryza sativa
How it was run: as §1

surinam grass = experiment: Test B pre/postemergence surinam grass; type: in vivo, Brachiaria decumbens
How it was run: (§2)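 Response is a visual 0-to-10 score relative to untreated plants, where 0 means no effect and 10 means complete control, taken twelve to sixteen days after application. Treatments went onto soil at planting and onto foliage of 1- to 4-leaf plants, using a surfactant-containing non-phytotoxic solvent.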

bedstraw = experiment: Test B pre/postemergence bedstraw; type: in vivo, Galium aparine
How it was run: as §2

cocklebur = experiment: Test B pre/postemergence cocklebur; type: in vivo, Xanthium strumarium; settings: for Cocklebur plant response rating: scale of 0 to 10 where 0 is no effect and 10 is complete control
How it was run: as §2

rape = experiment: Test B pre/postemergence rape; type: in vivo, Brassica napus; settings: for Rape plant response rating: scale of 0 to 10 where 0 is no effect and 10 is complete control
How it was run: as §2

blackgrass = experiment: Test B pre/postemergence blackgrass; type: in vivo, Alopecurus myosuroides
How it was run: as §2

sugar beet = experiment: Test B pre/postemergence sugar beet; type: in vivo, Beta vulgaris; settings: for Sugarbeets plant response rating: scale of 0 to 10 where 0 is no effect and 10 is complete control
How it was run: as §2

velvetleaf = experiment: Test B pre/postemergence velvetleaf; type: in vivo, Abutilon theophrasti; settings: for Velvetleaf plant response rating: scale of 0 to 10 where 0 is no effect and 10 is complete control
How it was run: as §2

crabgrass = experiment: Test B pre/postemergence crabgrass; type: in vivo, Digitaria sanguinalis; settings: for Crabgrass plant response rating: scale of 0 to 10 where 0 is no effect and 10 is complete control
How it was run: as §2

corn = experiment: Test B pre/postemergence corn; type: in vivo, Zea mays; settings: for Corn plant response rating: scale of 0 to 10 where 0 is no effect and 10 is complete control
How it was run: as §2

wild oat = experiment: Test B pre/postemergence wild oat; type: in vivo, Avena fatua; settings: for Wild oats plant response rating: scale of 0 to 10 where 0 is no effect and 10 is complete control
How it was run: as §2

purple nutsedge = experiment: Test B pre/postemergence purple nutsedge; type: in vivo, Cyperus rotundus; settings: for Nutsedge plant response rating: scale of 0 to 10 where 0 is no effect and 10 is complete control
How it was run: as §2

pigweed = experiment: Test B pre/postemergence pigweed; type: in vivo, Amaranthus retroflexus; settings: for Redroot pigweed plant response rating: scale of 0 to 10 where 0 is no effect and 10 is complete control
How it was run: as §2

duck salad = experiment: Test B flood test duck salad; type: in vivo, Heteranthera limosa
How it was run: as §1

soybean = experiment: Test B pre/postemergence soybean; type: in vivo, Glycine max; settings: for Soybean plant response rating: scale of 0 to 10 where 0 is no effect and 10 is complete control
How it was run: as §2

giant foxtail = experiment: Test B pre/postemergence giant foxtail; type: in vivo, Setaria faberii; settings: for Giant foxtail plant response rating: scale of 0 to 10 where 0 is no effect and 10 is complete control
How it was run: as §2

wheat = experiment: Test B pre/postemergence wheat; type: in vivo, Triticum aestivum; settings: for Wheat plant response rating: scale of 0 to 10 where 0 is no effect and 10 is complete control
How it was run: as §2

smallflower flatsedge = experiment: Test B flood test smallflower flatsedge; type: in vivo, Cyperus difformis
How it was run: as §1

morningglory = experiment: Test B pre/postemergence morningglory; type: in vivo, Ipomoea hederacea; settings: for Morningglory plant response rating: scale of 0 to 10 where 0 is no effect and 10 is complete control
How it was run: as §2

[1] = Postemergence (flood test), Rate 125 g/ha, scale 0 to 10, 0 is no effect, 10 is complete control
[2] = Rate 62 g/ha, Postemergence (flood test species), scale of 0 to 10 where 0 is no effect and 10 is complete control
[3] = Rate 500 g/ha, listed under Postemergence (flood test species), scale 0 to 10, 0 no effect, 10 complete control
[4] = Postemergence, Rate 125 g/ha, scale 0 to 10, 0 is no effect, 10 is complete control
[5] = Preemergence, Rate 62 g/ha, scale 0 to 10 (0 no effect, 10 complete control)
[6] = Preemergence, Rate 250 g/ha, scale of 0 to 10 where 0 is no effect and 10 is complete control
[7] = Preemergence, Rate 500 g/ha, scale of 0 to 10 where 0 is no effect and 10 is complete control
[8] = Rate 62 g/ha, Postemergence, scale of 0 to 10 where 0 is no effect and 10 is complete control
[9] = Rate 250 g/ha, Postemergence, scale of 0 to 10 where 0 is no effect and 10 is complete control
[10] = Rate 500 g/ha, Postemergence, scale 0 to 10, 0 no effect, 10 complete control

Cc1cccc(C(C)(C)C)c1-n1c(=O)on(C(=O)N(c2ccc(F)cc2)C(C)C)c1=O [Compound 359]
Plant response rating, Barnyardgrass (bamyardgrass; [1]): 0 | Barnyardgrass plant response rating (bamyardgrass; [2]): 0 | Plant response rating, Barnyardgrass (bamyardgrass; Rate 250 g/ha, Postemergence (flood test species), scale of 0 to 10 where 0 is no effect and 10 is complete control): 0 | Plant response rating, Barnyardgrass (bamyardgrass; [3]): 0 | Plant response rating, Rice (rice; [1]): 0 | Rice plant response rating (rice; [2]): 0 | Plant response rating, Rice (rice; [3]): 0 | Plant response rating, B. signalgrass (surinam grass; [4]): 0 | Plant response rating, B. signalgrass (surinam grass; [5]): 0 | B. signalgrass plant response rating (0 to 10 scale, 0 is no effect, 10 is complete control) (surinam grass; Preemergence, Rate 125 g/ha): 0 | B. signalgrass plant response rating (surinam grass; [6]): 0 | B. signalgrass plant response rating (surinam grass; [7]): 0 | B. signalgrass plant response rating (surinam grass; [8]): 0 | Plant response rating, B. signalgrass (surinam grass; [9]): 0 | Plant response rating, B. signalgrass (surinam grass; [10]): 0 | Plant response rating, Bedstraw (bedstraw; [4]): 0 | Plant response rating, Bedstraw (bedstraw; [5]): 0 | Bedstraw plant response rating (0 to 10 scale) (bedstraw; Preemergence, Rate 125 g/ha): 0 | Bedstraw plant response rating (bedstraw; [6]): 0 | Bedstraw plant response rating (bedstraw; [7]): 0 | Bedstraw plant response rating (bedstraw; [8]): 0 | Plant response rating, Bedstraw (bedstraw; [9]): 0 | Plant response rating, Bedstraw (bedstraw; [10]): 0 | Plant response rating, Cocklebur (cocklebur; [4]): 0 | Plant response rating, Cocklebur (cocklebur; [5]): 0 | Cocklebur plant response rating (0 to 10 scale) (cocklebur; Preemergence, Rate 125 g/ha): 0 | Cocklebur plant response rating (cocklebur; Preemergence, Rate 500 g/ha): 0 | Cocklebur plant response rating (cocklebur; Rate 62 g/ha, Postemergence): 0 | Plant response rating, Cocklebur (cocklebur; [10]): 1 | Plant response rating, Rape (rape; [4]): 0 | Plant response rating, Rape (rape; [5]): 0 | Rape plant response rating (0 to 10 scale) (rape; Preemergence, Rate 125 g/ha): 0 | Rape plant response rating (rape; Preemergence, Rate 250 g/ha): 0 | Rape plant response rating (rape; Preemergence, Rate 500 g/ha): 0 | Rape plant response rating (rape; Rate 62 g/ha, Postemergence): 0 | Plant response rating, Rape (rape; [10]): 0 | Plant response rating, Blackgrass (blackgrass; [4]): 0 | Plant response rating, Blackgrass (blackgrass; [5]): 0 | Blackgrass plant response rating (0 to 10 scale) (blackgrass; Preemergence, Rate 125 g/ha): 0 | Blackgrass plant response rating (blackgrass; [6]): 0 | Blackgrass plant response rating (blackgrass; [7]): 0 | Blackgrass plant response rating (blackgrass; [8]): 0 | Plant response rating, Blackgrass (blackgrass; [9]): 0 | Plant response rating, Blackgrass (blackgrass; [10]): 2 | Plant response rating, Sugarbeets (sugar beet; [4]): 0 | Plant response rating, Sugarbeets (sugar beet; [5]): 0 | Sugarbeets plant response rating (0 to 10 scale) (sugar beet; Preemergence, Rate 125 g/ha): 0 | Sugarbeets plant response rating (sugar beet; Preemergence, Rate 250 g/ha): 0 | Sugarbeets plant response rating (sugar beet; Preemergence, Rate 500 g/ha): 0 | Sugarbeets plant response rating (sugar beet; Rate 62 g/ha, Postemergence): 0 | Plant response rating, Sugarbeets (sugar beet; [10]): 0 | Plant response rating, Velvetleaf (velvetleaf; [4]): 0 | Plant response rating, Velvetleaf (velvetleaf; [5]): 0 | Velvetleaf plant response rating (0 to 10 scale) (velvetleaf; Preemergence, Rate 125 g/ha): 0 | Velvetleaf plant response rating (velvetleaf; Preemergence, Rate 250 g/ha): 0 | Velvetleaf plant response rating (velvetleaf; Preemergence, Rate 500 g/ha): 0 | Velvetleaf plant response rating (velvetleaf; Rate 62 g/ha, Postemergence): 0 | Plant response rating, Velvetleaf (velvetleaf; [10]): 2 | Plant response rating, Crabgrass (crabgrass; [4]): 0 | Plant response rating, Crabgrass (crabgrass; [5]): 0 | Crabgrass plant response rating (0 to 10 scale) (crabgrass; Preemergence, Rate 125 g/ha): 0 | Crabgrass plant response rating (crabgrass; Preemergence, Rate 250 g/ha): 0 | Crabgrass plant response rating (crabgrass; Preemergence, Rate 500 g/ha): 0 | Crabgrass plant response rating (crabgrass; Rate 62 g/ha, Postemergence): 0 | Plant response rating, Crabgrass (crabgrass; [10]): 0 | Plant response rating, Corn (corn; [4]): 0 | Plant response rating, Corn (corn; [5]): 0 | Corn plant response rating (0 to 10 scale) (corn; Preemergence, Rate 125 g/ha): 0 | Corn plant response rating (corn; Preemergence, Rate 250 g/ha): 0 | Corn plant response rating (corn; Preemergence, Rate 500 g/ha): 0 | Corn plant response rating (corn; Rate 62 g/ha, Postemergence): 0 | Plant response rating, Corn (corn; [10]): 0 | Plant response rating, Wild oats (wild oat; [4]): 0 | Plant response rating, Wild oats (wild oat; [5]): 0 | Wild oats plant response rating (0 to 10 scale) (wild oat; Preemergence, Rate 125 g/ha): 0 | Wild oats plant response rating (wild oat; Preemergence, Rate 250 g/ha): 0 | Wild oats plant response rating (wild oat; Preemergence, Rate 500 g/ha): 0 | Wild oats plant response rating (wild oat; Rate 62 g/ha, Postemergence): 0 | Plant response rating, Wild oats (wild oat; [10]): 0 | Plant response rating, Nutsedge (purple nutsedge; [4]): 0 | Plant response rating, Nutsedge (purple nutsedge; [5]): 0 | Nutsedge plant response rating (0 to 10 scale) (purple nutsedge; Preemergence, Rate 125 g/ha): 0 | Nutsedge plant response rating (purple nutsedge; Preemergence, Rate 250 g/ha): 0 | Nutsedge plant response rating (purple nutsedge; Preemergence, Rate 500 g/ha): 0 | Nutsedge plant response rating (purple nutsedge; Rate 62 g/ha, Postemergence): 0 | Plant response rating, Nutsedge (purple nutsedge; [10]): 0 | Plant response rating, Redroot pigweed (pigweed; [4]): 0 | Plant response rating, Redroot pigweed (pigweed; [5]): 0 | Redroot pigweed plant response rating (0 to 10 scale) (pigweed; Preemergence, Rate 125 g/ha): 0 | Redroot pigweed plant response rating (pigweed; Preemergence, Rate 250 g/ha): 0 | Redroot pigweed plant response rating (pigweed; Preemergence, Rate 500 g/ha): 0 | Redroot pigweed plant response rating (pigweed; Rate 62 g/ha, Postemergence): 0 | Plant response rating, Redroot pigweed (pigweed; [10]): 0 | Plant response rating, Ducksalad (duck salad; [1]): 0 | Ducksalad plant response rating (duck salad; [2]): 0 | Plant response rating, Ducksalad (duck salad; [3]): 0 | Plant response rating, Soybean (soybean; [4]): 2 | Plant response rating, Soybean (soybean; [5]): 0 | Soybean plant response rating (0 to 10 scale) (soybean; Preemergence, Rate 125 g/ha): 0 | Soybean plant response rating (soybean; Preemergence, Rate 250 g/ha): 0 | Soybean plant response rating (soybean; Preemergence, Rate 500 g/ha): 0 | Soybean plant response rating (soybean; Rate 62 g/ha, Postemergence): 0 | Plant response rating, Soybean (soybean; [10]): 3 | Plant response rating, Giant foxtail (giant foxtail; [4]): 0 | Plant response rating, Giant foxtail (giant foxtail; [5]): 0 | Giant foxtail plant response rating (0 to 10 scale) (giant foxtail; Preemergence, Rate 125 g/ha): 0 | Giant foxtail plant response rating (giant foxtail; Preemergence, Rate 250 g/ha): 0 | Giant foxtail plant response rating (giant foxtail; Preemergence, Rate 500 g/ha): 0 | Giant foxtail plant response rating (giant foxtail; Rate 62 g/ha, Postemergence): 0 | Plant response rating, Giant foxtail (giant foxtail; [10]): 0 | Plant response rating, Wheat (wheat; [4]): 0 | Plant response rating, Wheat (wheat; [5]): 0 | Wheat plant response rating (0 to 10 scale) (wheat; Preemergence, Rate 125 g/ha): 0 | Wheat plant response rating (wheat; Preemergence, Rate 250 g/ha): 0 | Wheat plant response rating (wheat; Preemergence, Rate 500 g/ha): 0 | Wheat plant response rating (wheat; Rate 62 g/ha, Postemergence): 0 | Plant response rating, Wheat (wheat; [10]): 2 | Plant response rating, S. Flatsedge (smallflower flatsedge; [1]): 0 | S. Flatsedge plant response rating (smallflower flatsedge; [2]): 0 | Plant response rating, S. Flatsedge (smallflower flatsedge; [3]): 0 | Plant response rating, Morningglory (morningglory; [4]): 0 | Plant response rating, Morningglory (morningglory; [5]): 0 | Morningglory plant response rating (0 to 10 scale) (morningglory; Preemergence, Rate 125 g/ha): 0 | Morningglory plant response rating (morningglory; Preemergence, Rate 250 g/ha): 0 | Morningglory plant response rating (morningglory; Preemergence, Rate 500 g/ha): 0 | Morningglory plant response rating (morningglory; Rate 62 g/ha, Postemergence): 0 | Plant response rating, Morningglory (morningglory; [10]): 0
